Assay results reported in patent US9826740B2, “Synergistic fungicidal compositions and methods of use” (ZELAM LIMITED, priority 2010, dated 2017).
Several values for one entry are separate records, joined by “and”; a condition that tells them apart may be missing. Equal values may be shown once. Read-outs that look alike come from different tables or passages of the source.

Tests used:
[1] = test system: human and yeast CYP51 (lanosterol-14α-demethylase); conditions: cited from earlier work; for relative selectivity for the fungal enzyme (in words): based on the IC50 ratio human/yeast; for ratio of IC50 values (human/yeast) against CYP51: human CYP51 IC50 / yeast (Candida albicans) CYP51 IC50
[2] = cited from earlier work
[3] = 20° C.; cited from earlier work
[4] = cited from earlier work; remark: listed apart in the source
[5] = test system: Antrodia xantha (Brown rot); assay: Malt extract agar plate growth inhibition; assay type: cell-based
Experimental: (§1) The end points used were EC90 or EC50, the concentration producing 90% or 50% inhibition of growth or weight loss resulting from fungal growth. EC values were calculated by regression analysis of dose response data using the GraphPad Prism software package (GraphPad Software, Inc., 5755 Oberlin Drive #110, San Diego, Calif. 92121, USA). EC90 values are expressed in ppm and EC50 values are expressed in gai/m^3. […]

[6] = test system: Coniophora puteana (Brown rot); assay: Malt extract agar plate growth inhibition; assay type: cell-based; conditions: Example 6, 8 days growth
Experimental: as §1

[7] = test system: Fomitopsis lilacino-gilva (Brown rot); assay: Malt extract agar plate growth inhibition; assay type: cell-based; conditions: Example 4, 5 days at 25° C.
Experimental: (§2) The end points used were EC90 or EC50, the concentration producing 90% or 50% inhibition of growth or weight loss resulting from fungal growth. EC values were calculated by regression analysis of dose response data using the GraphPad Prism software package (GraphPad Software, Inc., 5755 Oberlin Drive #110, San Diego, Calif. 92121, USA). EC90 values are expressed in ppm and EC50 values are expressed in gai/m^3.
(§3) Decay fungi were grown on malt extract agar plates for 5 days at 25° C. in the presence of triadimefon alone or triadimenol alone (A), cyproconazole alone (B), and the pairs of mixtures shown in Table 2.

[8] = test system: Trametes versicolor (White rot); assay: Malt extract agar plate growth inhibition; assay type: cell-based; conditions: Example 4, 5 days at 25° C.
Experimental: as §2, §3

[9] = test system: Gloeophyllum abietinum (Brown rot); assay: Malt extract agar plate growth inhibition; assay type: cell-based; conditions: Example 5, 7 days growth
Experimental: as §1
(§4) Further EC90 values were determined for this example in a standard manner.

[10] = test system: Poria placenta (Brown rot); assay: Malt extract agar plate growth inhibition; assay type: cell-based
Experimental: as §1, §4

[11] = test system: Pycnoporus coccineus (White rot); assay: Malt extract agar plate growth inhibition; assay type: cell-based
Experimental: as §1, §4

[12] = test system: Serpula lacrymans (Dry rot); assay: Malt extract agar plate growth inhibition; assay type: cell-based
Experimental: as §1, §4

[13] = test system: Tyromyces palustris (Brown rot); assay: Malt extract agar plate growth inhibition; assay type: cell-based; conditions: Example 5, 4 days growth
Experimental: as §1, §4

Tyromyces palustris = assay: Rot jar test of glueline treated Pinus radiata plywood (AWPC 2007)
Experimental: (§5) Efficacy as a glueline fungicide was tested in plywood manufactured with phenol formaldehyde (PF), a typical resin used in engineered wood products. The wood type was Pinus radiata sapwood, which, like many softwoods, is rapidly degraded by decay organisms, if not protected. Five 3.2 mm rotary-peeled veneers were laid up with fungicide-containing PF resin at a typical commercial glue spread rate (250 g/m^2), cold pressed for 10 minutes then hot pressed for 12 minutes at 135° C. and […]. Test specimens (25 mm×25 mm×16 mm) were cut, then leached for 14 days according to EN 84 before conducting a three month “rot jar test” as specified by the Australasian Wood Preservation Committee (Laboratory Decay Test for Hazard Classes H3, H4 and H5, AWPC, 2007). Untreated controls contained no fungicide.
Plywood was manufactured following the procedure in Example 7 using triadimefon and triadimenol as the glueline fungicides and tested by the rot jar method after leaching. […]

Antrodia xantha = assay: as above; conditions: for Percentage weight loss: rot jar after leaching; for EC50(obs): Example 9, glueline rate giving 50% inhibition of weight loss, six rates, regression
Experimental: as §2, §5
(§6) Plywood was manufactured following the procedure in Example 7 using triadimefon and triadimenol as the glueline fungicides and tested by the rot jar method after leaching.
(§7) In order to examine the interaction between triadimefon and cyproconazole in the glueline a synergy trial was performed using plywood manufactured with fungicide-supplemented PF resin and the rot jar method described above. Six glueline rates (expressed as gai/m^3) of triadimefon alone, cyproconazole alone, triadimefon+cyproconazole (10:1) and triadimefon+cyproconazole (6:1) were used to establish EC50 values by regression analysis. Synergy was determined by the Wadley method as described above using the EC50 values.
(§8) Plywood 29 mm thick was manufactured from seven 4.3 mm rotary peeled Pinus radiata sapwood veneers using PF resin supplemented with various rates of triadimefon plus cyproconazole at a 10:1 ratio. […] The finished plywood was then sprayed with the same mixtures to cover the top and bottom faces of the plywood. Test specimens (25 mm×25 mm×29 mm) were cut, leached and tested by the rot jar method as described in Example 7.

[14] = test system: Fomitopsis lilacino-gilva; assay: as above; conditions: for EC50(obs): Example 9, glueline rate giving 50% inhibition of weight loss, six rates, regression
Experimental: as §2, §5, §6, §7, §8

Serpula lacrymans = assay: as above; conditions: for Percentage weight loss: leached, three month rot jar; for EC50(obs): Example 9, glueline rate giving 50% inhibition of weight loss, six rates, regression
Experimental: as §2, §5
as §7, with “values. […]” for “values.”

Coniophora puteana = assay: as above; conditions: Example 10, glueline rate giving 50% inhibition of weight loss, regression
Experimental: as §2
Efficacy as a glueline fungicide was tested in plywood manufactured with phenol formaldehyde (PF), a typical resin used in engineered wood products. The wood type was Pinus radiata sapwood, which, like many softwoods, is rapidly degraded by decay organisms, if not protected. […]
as §7, with “values. […]” for “values.”

[15] = cited from earlier work; remark: listed apart in the source
Decay fungi = assay: Malt extract agar plate growth test, statements over all decay fungi tested; assay type: cell-based; conditions: Example 4, EC90, Antrodia xantha, Fomitopsis lilacino-gilva, Trametes versicolor
Experimental: as §2, §3, §4

[16] = cited from earlier work; remark: listed apart in the source
Coriolus versicolor = conditions: cited from earlier work
Chondrostereum purpureum = conditions: cited from earlier work
Trichoderma viride = conditions: cited from earlier work
[17] = in words, temperature not given
[18] = Example 7, glueline 62.5 gai/m3, PF plywood, leached, three month rot jar
[19] = Example 7, glueline 125 gai/m3, PF plywood, leached, three month rot jar
[20] = Example 7, glueline 250 gai/m3, PF plywood, leached, three month rot jar
[21] = Example 7, glueline 500 gai/m3, PF plywood, leached, three month rot jar
[22] = Example 8, glueline 250 gai/m3, PF plywood, rot jar after leaching
[23] = Example 8, glueline 500 gai/m3, PF plywood, rot jar after leaching
[24] = Example 8, glueline 1000 gai/m3, PF plywood, rot jar after leaching
[25] = Example 8, glueline 2000 gai/m3, PF plywood, rot jar after leaching
[26] = Example 8, glueline 250 gai/m3, PF plywood
[27] = Example 8, glueline 500 gai/m3, PF plywood
[28] = Example 8, glueline 1000 gai/m3, PF plywood
[29] = Example 8, glueline 2000 gai/m3, PF plywood
[30] = Example 7, glueline 62.5 gai/m3, PF plywood
[31] = Example 7, glueline 125 gai/m3, PF plywood
[32] = Example 7, glueline 250 gai/m3, PF plywood
[33] = Example 7, glueline 500 gai/m3, PF plywood

## Propiconazole
[1]
  relative selectivity for the fungal enzyme (in words): moderately selective
  ratio of IC50 values (human/yeast) against CYP51: 55
[2]
  Kow (log P): 3.72
[3]
  Sol. Water: 100 mg/L (20°)
[4]; 25° C.
  Sol. hexane: 47 g/L (25° C.)
[4]; [17]
  Sol. DCM: Completely misc
  Sol. toluene: Completely misc

## CC(C)(C)C(=O)C(Oc1ccc(Cl)cc1)n1cncn1 (racemic) [Triadimefon]
[5]; Example 4, 5 days at 25° C.
  EC90(obs): 2.56 ppm
[5]; Example 6, 8 days growth
  EC90(obs): 2.52 ppm
[6]
  EC90(obs): 27.4 ppm
[7]
  EC90(obs): 1.48 ppm
[8]
  EC90(obs): 1.52 ppm
[9]
  EC90(obs): 17.2 ppm
[10]; Example 5, 5 days growth
  EC90(obs): 0.82 ppm
[10]; Example 6, 6 days growth
  EC90(obs): 1.08 ppm
[11]; Example 5, 4 days growth
  EC90(obs): 0.34 ppm
[11]; Example 6, 6 days growth
  EC90(obs): 0.70 ppm
[12]; Example 5, 5 days growth
  EC90(obs): 26.4 ppm
[12]; Example 6, 8 days growth
  EC90(obs): 26.3 ppm
[13]
  EC90(obs): 4.48 ppm
Tyromyces palustris; [18]
  Percentage weight loss: 28.7%
Tyromyces palustris; [19]
  Percentage weight loss: 29.2%
Tyromyces palustris; [20]
  Percentage weight loss: 16.5%
Tyromyces palustris; [21]
  Percentage weight loss: 7.6%
Tyromyces palustris; [22]
  Percentage weight loss: 14.2%
Tyromyces palustris; [23]
  Percentage weight loss: 10.7%
Tyromyces palustris; [24]
  Percentage weight loss: 2.0%
Tyromyces palustris; [25]
  Percentage weight loss: 0.4%
Antrodia xantha; [26]
  Percentage weight loss: 29.4%
Antrodia xantha; [27]
  Percentage weight loss: 20.3%
Antrodia xantha; [28]
  Percentage weight loss: 12.5%
Antrodia xantha; [29]
  Percentage weight loss: 6.1%
Antrodia xantha
  EC50(obs): 248 gai/m^3
[14]; [18]
  Percentage weight loss: 17.8%
[14]; [19]
  Percentage weight loss: 16.7%
[14]; [20]
  Percentage weight loss: 10.3%
[14]; [21]
  Percentage weight loss: 8.2%
[14]; [22]
  Percentage weight loss: 19.1%
[14]; [23]
  Percentage weight loss: 13.8%
[14]; [24]
  Percentage weight loss: 5.1%
[14]; [25]
  Percentage weight loss: 3.6%
[14]
  EC50(obs): 121 gai/m^3
Serpula lacrymans; [30]
  Percentage weight loss: 42.4%
Serpula lacrymans; [31]
  Percentage weight loss: 43.8%
Serpula lacrymans; [32]
  Percentage weight loss: 42.2%
Serpula lacrymans; [33]
  Percentage weight loss: 44.9%
Serpula lacrymans
  EC50(obs): 14328 gai/m^3
Coniophora puteana
  EC50(obs): 2591144 gai/m^3
[2]
  Kow (log P): 3.11
[3]
  Sol. Water: 64 mg/L (20° C.)
[4]; 20° C.
  Sol. DCM: >200 g/L (20° C.)
  Sol. hexane: 6.3 g/L (20° C.)
  Sol. toluene: >200 g/L (20° C.)
[15]; pH 4,7,9
  Stability, hydrolysis DT50: DT50 >1 y pH 4,7,9

## CC(C)(C)C(O)C(Oc1ccc(Cl)cc1)n1cncn1 (stereo not shown) [Triadimenol]
Decay fungi
  efficacy acting alone relative to triadimefon acting alone: two to ten times more efficacious
[5]; Example 4, 5 days at 25° C.
  EC90(obs): 1.12 ppm
[7]
  EC90(obs): 0.37 ppm
[8]
  EC90(obs): 0.15 ppm
[9]
  EC90(obs): 1.80 ppm
[10]; Example 5, 5 days growth
  EC90(obs): 0.84 ppm
[11]; Example 5, 4 days growth
  EC90(obs): 0.10 ppm
[12]; Example 5, 5 days growth
  EC90(obs): 42.8 ppm
[13]
  EC90(obs): 1.26 ppm
Tyromyces palustris; [22]
  Percentage weight loss: 9.6%
Tyromyces palustris; [23]
  Percentage weight loss: 6.5%
Tyromyces palustris; [24]
  Percentage weight loss: 0.9%
Tyromyces palustris; [25]
  Percentage weight loss: 0.3%
Antrodia xantha; [26]
  Percentage weight loss: 24.7%
Antrodia xantha; [27]
  Percentage weight loss: 18.4%
Antrodia xantha; [28]
  Percentage weight loss: 11.2%
Antrodia xantha; [29]
  Percentage weight loss: 1.0%
[14]; [22]
  Percentage weight loss: 9.0%
[14]; [23]
  Percentage weight loss: 5.1%
[14]; [24]
  Percentage weight loss: 1.6%
[14]; [25]
  Percentage weight loss: 0.9%
[16]; triadimenol form A
  Henry: 3 × 10^−6 P m^3 mo1^−1
[16]; triadimenol form B
  Henry: 4 × 10^−6 P m^3 mo1^−1
[1]
  relative selectivity for the fungal enzyme (in words): moderately selective
  ratio of IC50 values (human/yeast) against CYP51: 113
Coriolus versicolor
  sensitivity of the fungus (in words): sensitive
Chondrostereum purpureum
  sensitivity of the fungus (in words): sensitive
Trichoderma viride
  sensitivity of the fungus (in words): insensitive
[15]; pH 4
  Stability, hydrolysis DT50: DT50 >1 y pH 4,7,9

## CC(C)(C)C(O)(CCc1ccc(Cl)cc1)Cn1cncn1 (racemic) [Tebuconazole]
[3]
  Sol. Water: 36 mg/L (20° C.)
[4]; 20° C.
  Sol. DCM: >200 g/L (20° C.)
  Sol. hexane: <0.1 g/L (20° C.)
  Sol. toluene: 50-100 g/L (20° C.)
[15]; pH 4-9
  Stability, hydrolysis DT50: DT50 >1 y pH 4-9

## CC(C1CC1)C(O)(Cn1cncn1)c1ccc(Cl)cc1 (racemic) [Cyproconazole]
[5]; Example 4, 5 days at 25° C.
  EC90(obs): 0.19 ppm
[5]; Example 6, 8 days growth
  EC90(obs): 0.46 ppm
[6]
  EC90(obs): 1.93 ppm
[7]
  EC90(obs): 0.12 ppm
[8]
  EC90(obs): 0.30 ppm and 0.19 ppm
[9]
  EC90(obs): 0.25 ppm
[10]; Example 5, 5 days growth
  EC90(obs): 0.92 ppm
[10]; Example 6, 6 days growth
  EC90(obs): 0.36 ppm
[11]; Example 5, 4 days growth
  EC90(obs): 0.17 ppm
[11]; Example 6, 6 days growth
  EC90(obs): 0.14 ppm
[12]; Example 5, 5 days growth
  EC90(obs): 1.60 ppm
[12]; Example 6, 8 days growth
  EC90(obs): 1.32 ppm
[13]
  EC90(obs): 0.68 ppm
Tyromyces palustris; [18]
  Percentage weight loss: 25.0%
Tyromyces palustris; [19]
  Percentage weight loss: 16.0%
Tyromyces palustris; [20]
  Percentage weight loss: 17.1%
Tyromyces palustris; [21]
  Percentage weight loss: 4.3%
Antrodia xantha
  EC50(obs): 84 gai/m^3
[14]; [18]
  Percentage weight loss: 7.6%
[14]; [19]
  Percentage weight loss: 4.1%
[14]; [20]
  Percentage weight loss: 2.7%
[14]; [21]
  Percentage weight loss: 0.8%
[14]
  EC50(obs): 10 gai/m^3
Serpula lacrymans; [30]
  Percentage weight loss: 38.0%
Serpula lacrymans; [31]
  Percentage weight loss: 38.0%
Serpula lacrymans; [32]
  Percentage weight loss: 37.9%
Serpula lacrymans; [33]
  Percentage weight loss: 29.6%
Serpula lacrymans
  EC50(obs): 465 gai/m^3
Coniophora puteana
  EC50(obs): 345 gai/m^3
[15]; pH 1
  Stability in water: Stable in water 35 d
